Test results published in patent US8592455B2 (priority 2008, dated 2013).

Legend:
Pim1 kinase = Pim1 kinase (Homo sapiens (Human), UniProt P11309); conditions: read-out: Pim1 IC50
Pim3 kinase = Pim3 kinase (Homo sapiens (Human), UniProt Q86V86); conditions: read-out: Pim3 IC50

Pim1 kinase, sequence (P11309 whole entry): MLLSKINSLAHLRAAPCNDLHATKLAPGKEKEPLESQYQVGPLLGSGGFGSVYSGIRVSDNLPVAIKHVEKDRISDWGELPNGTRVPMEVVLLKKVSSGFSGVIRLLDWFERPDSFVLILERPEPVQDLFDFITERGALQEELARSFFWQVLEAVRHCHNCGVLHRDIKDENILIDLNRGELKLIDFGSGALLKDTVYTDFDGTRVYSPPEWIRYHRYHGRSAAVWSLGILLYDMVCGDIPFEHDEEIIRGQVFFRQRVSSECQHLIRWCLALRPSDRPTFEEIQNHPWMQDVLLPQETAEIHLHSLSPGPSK

## C[C@@H]1C[C@H](c2ccncc2NC(=O)c2cccc(-c3c(F)cccc3F)n2)C[C@H](N)[C@H]1O (stereo in doubt) [Example 52, N-(4-((1S,3S,4S,5R)-3-amino-4-hydroxy-5-methylcyclohexyl)pyridin-3-yl)-6-(2,6-difluorophenyl)picolinamide]
Pim1 kinase
  IC50: 1 nM
Pim3 kinase
  IC50: 2 nM

## C[C@H]1C[C@@H](c2ccncc2NC(=O)c2ccc(F)c(C3CCCCC3)n2)C[C@@H](N)[C@@H]1O (stereo in doubt) [Example 89, N-(4-(3-amino-4-hydroxy-5-methylcyclohexyl)pyridin-3-yl)-6-cyclohexyl-5-fluoropicolinamide]
Pim1 kinase
  IC50: 8 nM
Pim3 kinase
  IC50: 29 nM

## C[C@H]1C[C@@H](c2ccncc2NC(=O)c2nc(C3CCCCC3)ccc2N)C[C@@H](N)[C@@H]1O (stereo in doubt) [Example 90, 3-amino-N-(4-(3-amino-4-hydroxy-5-methylcyclohexyl)pyridin-3-yl)-6-cyclohexylpicolinamide]
Pim1 kinase
  IC50: 3 nM
Pim3 kinase
  IC50: 12 nM

## C[C@@H]1C[C@H](N)C[C@H](c2ccncc2NC(=O)c2ccc(F)c(C3CCCCC3)n2)C1 (stereo in doubt) [Example 91, N-(4-(3-amino-5-methylcyclohexyl)pyridin-3-yl)-6-cyclohexyl-5-fluoropicolinamide]
Pim1 kinase
  IC50: 3 nM
Pim3 kinase
  IC50: 21 nM

## CC(=O)O[C@H]1CC[C@@H](c2ccncc2NC(=O)c2nc(-c3c(F)cccc3F)ccc2N)C[C@H]1N (stereo in doubt) [Example 101, 2-amino-4-(3-(3-amino-6-(2,6-difluorophenyl)picolinamido)pyridin-4-yl)cyclohexyl acetate]
Pim1 kinase
  IC50: 2 nM
Pim3 kinase
  IC50: 5 nM

## C[C@H]1C[C@@H](c2ccncc2NC(=O)c2nc(-c3c(F)cccc3F)c(F)cc2N)C[C@@H](N)[C@@H]1O (stereo in doubt) [Example 130, 3-amino-N-(4-(3-amino-4-hydroxy-5-methylcyclohexyl)pyridin-3-yl)-6-(2,6-difluorophenyl)-5-fluoropicolinamide]
Pim1 kinase
  IC50: 2 nM

## Nc1cc(F)c(-c2c(F)cccc2F)nc1C(=O)Nc1cnccc1[C@@H]1CC[C@H](O)[C@H](N)C1 (stereo in doubt) [Example 131, 3-amino-N-(4-(3-amino-4-hydroxycyclohexyl)pyridin-3-yl)-6-(2,6-difluorophenyl)-5-fluoropicolinamide]
Pim1 kinase
  IC50: 2 nM

## C[C@H]1C[C@@H](c2ccncc2NC(=O)c2nc(-c3c(F)cccc3F)c(F)cc2N)C[C@@H](N)[C@H]1O (stereo in doubt) [Example 132, 3-amino-N-(4-(3-amino-4-hydroxy-5-methylcyclohexyl)pyridin-3-yl)-6-(2,6-difluorophenyl)-5-fluoropicolinamide]
Pim1 kinase
  IC50: 1 nM

## C[C@@H]1C[C@H](N)C[C@H](c2ccncc2NC(=O)c2nc(-c3c(F)cccc3F)c(F)cc2N)C1 (stereo in doubt) [Example 133, 3-amino-N-(4-(3-amino-5-methylcyclohexyl)pyridin-3-yl)-6-(2,6-difluorophenyl)-5-fluoropicolinamide]
Pim1 kinase
  IC50: 1 nM
Pim3 kinase
  IC50: 7 nM

## C[C@H]1C[C@@H](c2ccncc2NC(=O)c2ccc(F)c(-c3c(F)cc(O)cc3F)n2)C[C@@H](N)[C@@H]1O [Example 4, N-(4-((1R,3R,4R,5S)-3-amino-4-hydroxy-5-methylcyclohexyl)pyridin-3-yl)-6-(2,6-difluoro-4-hydroxyphenyl)-5-fluoropicolinamide]
Pim1 kinase
  IC50: 1 nM
Pim3 kinase
  IC50: 2 nM

## C[C@H]1C[C@@H](c2ccncc2NC(=O)c2ccc(F)c(-c3cc(O)ccc3F)n2)C[C@@H](N)[C@@H]1O [Example 5, N-(4-((1R,3R,4R,5S)-3-amino-4-hydroxy-5-methylcyclohexyl)pyridin-3-yl)-5-fluoro-6-(2-fluoro-5-hydroxyphenyl)picolinamide]
Pim1 kinase
  IC50: 3 nM
Pim3 kinase
  IC50: 9 nM

## N[C@H]1CCC[C@@H](c2ccncc2NC(=O)c2cccc(-c3cc(O)ccc3F)n2)C1 [Example 7, N-(4-((1R,3S)-3-aminocyclohexyl)pyridin-3-yl)-6-(2-fluoro-5-hydroxyphenyl)picolinamide]
Pim1 kinase
  IC50: 1 nM
Pim3 kinase
  IC50: 2 nM

## N[C@H]1CCC[C@@H](c2ccncc2NC(=O)c2cccc(-c3c(F)cc(O)cc3F)n2)C1 [Example 8, N-(4-((1R,3S)-3-aminocyclohexyl)pyridin-3-yl)-6-(2,6-difluoro-4-hydroxyphenyl)picolinamide]
Pim1 kinase
  IC50: 1 nM
Pim3 kinase
  IC50: 2 nM

## N[C@H]1CCC[C@@H](c2ccncc2NC(=O)c2ccc(F)c(-c3ccc(O)cc3F)n2)C1 [Example 9, N-(4-((1R,3S)-3-aminocyclohexyl)pyridin-3-yl)-5-fluoro-6-(2-fluoro-4-hydroxyphenyl)picolinamide]
Pim1 kinase
  IC50: 1 nM
Pim3 kinase
  IC50: 2 nM

## CC1(C)C[C@H](N)C[C@H](c2ccncc2NC(=O)c2ccc(F)c(-c3ccc(O)cc3F)n2)C1 [Example 10, N-(4-((1R,5R)-5-amino-3,3-dimethylcyclohexyl)pyridin-3-yl)-5-fluoro-6-(2-fluoro-4-hydroxyphenyl)picolinamide]
Pim1 kinase
  IC50: 1 nM
Pim3 kinase
  IC50: 6 nM

## Cc1ccc(F)c(-c2nc(C(=O)Nc3cnccc3[C@H]3C[C@@H](N)CC(C)(C)C3)ccc2F)c1F [Example 11, N-(4-((1R,5R)-5-amino-3,3-dimethylcyclohexyl)pyridin-3-yl)-6-(2,6-difluoro-3-methylphenyl)-5-fluoropicolinamide]
Pim1 kinase
  IC50: 1 nM
Pim3 kinase
  IC50: 4 nM

## Cc1ccc(F)c(-c2cccc(C(=O)Nc3cnccc3N3C[C@@H](N)[C@H](O)[C@@H](C)C3)n2)c1F [Example 13, N-(4-((3R,4R,5S)-3-amino-4-hydroxy-5-methylpiperidin-1-yl)pyridin-3-yl)-6-(2,6-difluoro-3-methylphenyl)picolinamide]
Pim1 kinase
  IC50: 1 nM
Pim3 kinase
  IC50: 3 nM

## C[C@H]1CN(c2ccncc2NC(=O)c2ccc(F)c(C3CCCCC3)n2)C[C@@H](N)[C@@H]1O [Example 16, N-(4-((3R,4R,5S)-3-amino-4-hydroxy-5-methylpiperidin-1-yl)pyridin-3-yl)-6-cyclohexyl-5-fluoropicolinamide]
Pim1 kinase
  IC50: 1 nM

## C[C@H]1CN(c2ccncc2NC(=O)c2ccc(F)c(-c3ccccc3F)n2)C[C@@H](N)[C@@H]1O [Example 25, N-(4-((3R,4R,5S)-3-amino-4-hydroxy-5-methylpiperidin-1-yl)pyridin-3-yl)-5-fluoro-6-(2-fluorophenyl)picolinamide]
Pim1 kinase
  IC50: 1 nM

## C[C@H]1CN(c2ccncc2NC(=O)c2cccc(-c3c(F)cccc3F)n2)C[C@@H](N)[C@@H]1O [Example 26, N-(4-((3R,4R,5S)-3-amino-4-hydroxy-5-methylpiperidin-1-yl)pyridin-3-yl)-6-(2,6-difluorophenyl)picolinamide]
Pim1 kinase
  IC50: 1 nM

## C[C@@H]1C[C@H](N)C[C@H](c2ccncc2NC(=O)c2nc(-c3c(F)cc(O)cc3F)ccc2F)C1 [Example 42, N-(4-((1R,3S,5S)-3-amino-5-methylcyclohexyl)pyridin-3-yl)-6-(2,6-difluoro-4-hydroxyphenyl)-3-fluoropicolinamide]
Pim1 kinase
  IC50: 1 nM

## COc1ccc(F)c(-c2nc(C(=O)Nc3cnccc3[C@@H]3C[C@H](C)C[C@H](N)C3)ccc2F)c1 [Example 45, N-(4-((1R,3S,5S)-3-amino-5-methylcyclohexyl)pyridin-3-yl)-5-fluoro-6-(2-fluoro-5-methoxyphenyl)picolinamide]
Pim1 kinase
  IC50: 1 nM

## C[C@@H]1C[C@H](N)C[C@H](c2ccncc2NC(=O)c2ccc(F)c([C@H]3CC[C@@H](O)CC3)n2)C1 [Example 54, N-(4-((1R,3S,5S)-3-amino-5-methylcyclohexyl)pyridin-3-yl)-5-fluoro-6-((1s,4s)-4-hydroxycyclohexyl)picolinamide]
Pim1 kinase
  IC50: 3 nM

## C[C@@H]1C[C@H](N)C[C@H](c2ccncc2NC(=O)c2ccc(F)c([C@H]3CC[C@H](O)CC3)n2)C1 [Example 55, N-(4-((1R,3S,5S)-3-amino-5-methylcyclohexyl)pyridin-3-yl)-5-fluoro-6-((1r,4r)-4-hydroxycyclohexyl)picolinamide]
Pim1 kinase
  IC50: 3 nM

## Nc1cc(F)c(-c2c(F)cccc2F)nc1C(=O)Nc1cnccc1[C@@H]1CC[C@H](O)[C@H](N)C1 [Example 65, 3-amino-N-(4-((1R,3R,4S)-3-amino-4-hydroxycyclohexyl)pyridin-3-yl)-6-(2,6-difluorophenyl)-5-fluoropicolinamide]
Pim1 kinase
  IC50: 1 nM

## Nc1ccc(-c2c(F)cccc2F)nc1C(=O)Nc1cnccc1[C@@H]1CC[C@H](O)[C@@H](N)C1 [Example 104, 3-amino-N-(4-((1R,3S,4S)-3-amino-4-hydroxycyclohexyl)pyridin-3-yl)-6-(2,6-difluorophenyl)picolinamide]
Pim1 kinase
  IC50: 3 nM

## Nc1ccc(-c2c(F)cccc2F)nc1C(=O)Nc1cnccc1C1=CC(N)CCC1 (stereo not drawn) [Example 107, 3-amino-N-(4-(3-aminocyclohex-1-enyl)pyridin-3-yl)-6-(2,6-difluorophenyl)picolinamide]
Pim1 kinase
  IC50: 2 nM

## COc1cc(F)c(-c2cccc(C(=O)Nc3cnccc3[C@H]3C[C@@H](N)C[C@@H](C(F)(F)F)C3)n2)c(F)c1 [Example 109, N-(4-((1R,3R,5S)-3-amino-5-(trifluoromethyl)cyclohexyl)pyridin-3-yl)-6-(2,6-difluoro-4-methoxyphenyl)picolinamide]
Pim1 kinase
  IC50: 1 nM

## C[C@H]1C[C@@H](c2ccncc2NC(=O)c2nc(-c3c(F)cccc3F)c(F)cc2N)C[C@@H](O)[C@@H]1O [Example 121, 3-amino-6-(2,6-difluorophenyl)-N-(4-((1R,3R,4R,5S)-3,4-methylcyclohexyl)pyridin-3-yl)-5-fluoropicolinamide]
Pim3 kinase
  IC50: 2 nM

## CC1(C)C[C@H](N)C[C@H](c2ccncc2NC(=O)c2ccc(F)c(-c3c(F)cc(O)cc3F)n2)C1 [Example 122, N-(4-((1R,5R)-5-amino-3,3-dimethylcyclohexyl)pyridin-3-yl)-6-(2,6-difluoro-4-hydroxyphenyl)-5-fluoropicolinamide]
Pim1 kinase
  IC50: 1 nM

## C[C@H]1C[C@@H](c2ccncc2NC(=O)c2ccc(F)c(-c3c(F)cccc3F)n2)C[C@@H](N)[C@H]1F [Example 139, N-(4-((1R,3R,4S,5S)-3-amino-4-fluoro-5-methylcyclohexyl)-pyridin-3-yl)-6-(2,6-difluorophenyl)-5-fluoropicolinamide]
Pim3 kinase
  IC50: 4 nM
